Test results: patent US11839613B2, “Pyrimidine derivatives as PGE2 receptor modulators” (IDORSIA PHARMACEUTICALS LTD, priority 2017, dated 2023)

Key:
PTGER2 (EP2) = PTGER2 (EP2) (Homo sapiens (Human), UniProt P43116); assay: hEP2 b-arrestin assay (PathHunter HEK 293 PTGER2 b-arrestin cells); assay type: cell-based; conditions: antagonistic activity, beta-arrestin assay; read-out: hEP2 b-arr IC50
Description: Plate is pre-incubated 15 minutes at 37° C. Then five microliters of PGE2 (final conc. 5 μM) are transferred into the assay plate. Plate is incubated 120 minutes at 37° C.
(each concentration is measured in duplicate)

EP2 = EP2 (Homo sapiens (Human), UniProt P43116); assay: hEP2 cAMP assay (SF295 glioblastoma cells, HTRF cAMP); assay type: cell-based; conditions: antagonistic activity
Excerpt: (§1) Human tumor cell lines expressing endogenously either EP4 or EP2 are used and cAMP accumulation in cells upon PGE2 stimulation is monitored. SF295 glioblastoma cells express high endogenous EP2 and no EP4, whereas BT549 breast cancer cells, express high endogenous EP4 levels and very low EP2 levels.
(§2) As a detection method for cAMP the HTRF (homogeneous time resolved fluorescence) Cisbio kit (HTRF cAMP dynamic 2 kit 20'000 tests Cisbio Cat. #62AM4PEC) was used, which is based on a competitive immunoassay using a Cryptate-labeled anti-cAMP antibody and d2-labeled cAMP. Native cAMP produced by cells or unlabeled cAMP (for the standard curve) compete with exogenously added d2-labeled cAMP (acceptor) for binding to monoclonal anti-cAMP-Eu3+Cryptate (donor). A FRET signal (Fluorescence Resonance Energy Transfer) is obtained only if the labeled anti-cAMP antibody binds the d2 labelled cAMP, thus the specific signal (i.e. energy transfer) is inversely proportional to the concentration of cAMP in the standard or sample.
(§3) Cells are counted washed and resuspended in assay buffer (AB; HBSS, 20 mM HEPES, 0.2% BSA; 2 mM IBMX).
Plate is pre-incubated 45 minutes at RT. […] Plate is incubated 30 minutes at RT.

EP4 = EP4 (Homo sapiens (Human), UniProt P35408); assay: hEP4 cAMP assay (BT549 breast cancer cells, HTRF cAMP); assay type: cell-based; conditions: antagonistic activity, PGE2 6 nM
Excerpt: as §1, §2, §3
Plate is pre-incubated 45 minutes at RT. Subsequently, 2.5 microliters of PGE2 (final conc. 6 nM) are transferred into the assay plate. Plate is incubated 30 minutes at RT.

PTGER4 (EP4) = PTGER4 (EP4) (Homo sapiens (Human), UniProt P35408); assay: cell-based
Sequence of PTGER4 (EP4) (P35408 whole entry): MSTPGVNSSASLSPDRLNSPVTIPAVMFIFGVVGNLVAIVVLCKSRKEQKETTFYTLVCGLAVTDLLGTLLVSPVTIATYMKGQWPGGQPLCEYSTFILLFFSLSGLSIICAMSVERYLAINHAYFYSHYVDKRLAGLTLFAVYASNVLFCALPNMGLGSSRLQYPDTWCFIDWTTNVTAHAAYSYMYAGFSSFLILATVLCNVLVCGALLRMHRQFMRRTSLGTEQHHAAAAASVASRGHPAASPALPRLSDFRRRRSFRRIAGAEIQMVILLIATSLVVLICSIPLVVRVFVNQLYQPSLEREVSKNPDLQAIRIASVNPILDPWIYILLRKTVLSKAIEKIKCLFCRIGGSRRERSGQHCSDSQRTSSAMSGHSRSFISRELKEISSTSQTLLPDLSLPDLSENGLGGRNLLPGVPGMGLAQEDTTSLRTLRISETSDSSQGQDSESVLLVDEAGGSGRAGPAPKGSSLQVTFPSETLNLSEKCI

Sequence of EP4 (P35408 whole entry): as above
Sequence of EP2 (P43116 whole entry): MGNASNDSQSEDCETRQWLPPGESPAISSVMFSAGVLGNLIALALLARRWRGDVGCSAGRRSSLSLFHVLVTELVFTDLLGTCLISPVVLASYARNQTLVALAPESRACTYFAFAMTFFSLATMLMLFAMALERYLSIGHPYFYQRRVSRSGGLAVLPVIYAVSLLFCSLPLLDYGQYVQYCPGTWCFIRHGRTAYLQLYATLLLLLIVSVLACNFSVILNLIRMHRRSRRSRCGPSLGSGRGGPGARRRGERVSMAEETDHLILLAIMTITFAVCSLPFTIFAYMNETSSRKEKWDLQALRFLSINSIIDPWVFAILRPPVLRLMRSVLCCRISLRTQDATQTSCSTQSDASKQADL
Sequence of PTGER2 (EP2) (P43116 whole entry): as above

SMILES	IC50 (PTGER2 (EP2))	IC50 (EP2)	IC50 (EP4)	IC50 (PTGER4 (EP4))
CCOc1cc(-c2cc(NCCc3ccc4sccc4c3)ncn2)sc1C(=O)O [Ex 5, 5-[6-(2-Benzo[b]thiophen-5-yl-ethylamino)-pyrimidin-4-yl]-3-ethoxy-thiophene-2-carboxylic acid]	39 nM	28 nM	3 nM	5 nM
CCOc1cc(-c2cc(NCCc3c(OC)cc4occc4c3C)ncn2)sc1C(=O)O [Ex 8, 3-Ethoxy-5-{6-[2-(6-methoxy-4-methyl-benzofuran-5-yl)-ethylamino]-pyrimidin-4-yl}-thiophene-2-carboxylic acid]	5 nM	1 nM	6 nM	22 nM
CCOc1cc(-c2cc(NCCc3cc4ccccc4cc3OC)ncn2)sc1C(=O)O [Ex 9, 3-Ethoxy-5-{6-[2-(3-methoxy-naphthalen-2-yl)-ethylamino]-pyrimidin-4-yl}-thiophene-2-carboxylic acid]	59 nM	67 nM	6 nM	6 nM
CCOc1cc(-c2cc(NCCc3cc4ccoc4cc3OC)ncn2)sc1C(=O)O [Ex 12, 3-Ethoxy-5-{6-[2-(6-methoxy-benzofuran-5-yl)-ethylamino]-pyrimidin-4-yl}-thiophene-2-carboxylic acid]	7 nM	3 nM	7 nM	20 nM
CCOc1cc(-c2cc(NCCc3cc4ccoc4cc3F)ncn2)sc1C(=O)O [Ex 13, 3-Ethoxy-5-{6-[2-(6-fluoro-benzofuran-5-yl)-ethylamino]-pyrimidin-4-yl}-thiophene-2-carboxylic acid]	12 nM	15 nM	8 nM	9 nM
O=C(O)c1ccc(-c2cc(NCCc3ccc4ccsc4c3)ncn2)cc1OC1CCC1 [Ex 147]	–	571 nM	141 nM	219 nM
CCSc1cc(-c2cc(NCCc3c(F)cc4ncccc4c3F)ncn2)ccc1C(=O)O [Ex 153]	–	340 nM	146 nM	757 nM
CCOc1cc(-c2cc(NCCc3ccc4sccc4c3)ncn2)ccc1C(C)C(=O)O (centres unmarked) [Ex 161]	–	524 nM	130 nM	199 nM
CCOc1cc(-c2cc(NCCc3cc4ccccc4cc3OC)ncn2)ccc1C(=O)O [Ex 162]	–	371 nM	158 nM	134 nM
CCOc1cc(-c2cc(NCCc3ccc4ccccc4c3C)ncn2)ccc1OCC(=O)O [Ex 166]	–	297 nM	165 nM	49 nM
CCOc1cc(-c2cc(NCCc3ccc4ccsc4c3)ncn2)ccc1C(=O)O [Ex 167, 4-[6-(2-Benzo[b]thiophen-6-yl-ethylamino)-pyrimidin-4-yl]-2-ethoxy-benzoic acid]	–	714 nM	166 nM	361 nM
CCOc1cc(-c2cc(NCCc3cc4c(cc3OC)OCCO4)ncn2)ccc1CC(=O)O [Ex 175]	–	301 nM	185 nM	179 nM
CSc1cc(-c2cc(NCCc3ccc4ccsc4c3)ncn2)ccc1C(=O)O [Ex 176]	–	293 nM	185 nM	179 nM
CSc1cc(-c2cc(NCCc3ccc4c(c3)CCC4)ncn2)ccc1C(=O)O [Ex 185, 4-[6-(2-Indan-5-yl-ethylamino)-pyrimidin-4-yl]-2-methylsulfanyl-benzoic acid]	–	452 nM	200 nM	258 nM
CCOc1cc(-c2cc(NCCc3ccc4cc[nH]c4c3)ncn2)ccc1OCC(=O)O [Ex 194, (2-Ethoxy-4-{6-[2-(1H-indol-6-yl)-ethylamino]-pyrimidin-4-yl}-phenoxy)-acetic acid]	–	295 nM	212 nM	325 nM
CCOc1cc(-c2cc(NCCc3cc4ccoc4cc3F)ncn2)ccc1CC(=O)O [Ex 195]	–	373 nM	217 nM	245 nM
O=C(O)c1ccc(-c2cc(NCCc3ccc4c(c3)CCC4)ncn2)cc1OC1CCC1 [Ex 206, 2-Cyclobutoxy-4-[6-(2-indan-5-yl-ethylamino)-pyrimidin-4-yl]-benzoic acid]	–	572 nM	248 nM	304 nM
CCOc1cc(-c2cc(NCCc3ccc4ccn(C)c4c3)ncn2)ccc1OCC(=O)O [Ex 207]	–	673 nM	248 nM	234 nM
CSc1cc(-c2cc(NCCc3cc(F)c4c(c3)OCCO4)ncn2)ccc1C(=O)O [Ex 216]	–	490 nM	267 nM	307 nM
CSc1cc(-c2cc(NCCc3ccc4ccccc4c3)ncn2)ccc1C(=O)O [Ex 219, 2-Methylsulfanyl-4-[6-(2-naphthalen-2-yl-ethylamino)-pyrimidin-4-yl]-benzoic acid]	–	486 nM	129 nM	202 nM
O=C(O)c1ccc(-c2cc(NCCc3ccc4c(c3)CCCO4)ncn2)cc1OC1CCC1 [Ex 266, 4-[6-(2-Chroman-6-yl-ethylamino)-pyrimidin-4-yl]-2-cyclobutoxy-benzoic acid]	–	537 nM	428 nM	444 nM
CCOc1cc(-c2cc(NCCc3ccc4occc4c3)ncn2)ccc1CC(=O)O [Ex 311, {4-[6-(2-Benzofuran-5-yl-ethylamino)-pyrimidin-4-yl]-2-ethoxy-phenyl}-acetic acid]	–	538 nM	685 nM	310 nM

Next, values leading:

IC50 (PTGER2 (EP2))	IC50 (EP2)	IC50 (EP4)	IC50 (PTGER4 (EP4))	SMILES
–	816 nM	346 nM	598 nM	CCOc1cc(-c2cc(NCCc3cc4ccccc4cc3C)ncn2)ccc1C(=O)O [Ex 240, 2-Ethoxy-4-{6-[2-(3-methyl-naphthalen-2-yl)-ethylamino]-pyrimidin-4-yl}-benzoic acid]
–	443 nM	351 nM	495 nM	CCOc1cc(-c2cc(NCCc3ccc4ccn(CC)c4c3)ncn2)sc1C(=O)O [Ex 242]
–	282 nM	389 nM	417 nM	CSc1cc(-c2cc(NCCc3ccc4c(c3)CCCO4)ncn2)ccc1C(=O)O [Ex 257, 4-[6-(2-Chroman-6-yl-ethylamino)-pyrimidin-4-yl]-2-methylsulfanyl-benzoic acid]
–	7520 nM	513 nM	341 nM	CSc1cc(-c2cc(NCCc3ccc4c(c3)OCCC4)ncn2)ccc1C(=O)O [Ex 285, 4-[6-(2-Chroman-7-yl-ethylamino)-pyrimidin-4-yl]-2-methylsulfanyl-benzoic acid]
–	688 nM	538 nM	1510 nM	CSc1cc(-c2cc(NCCc3cc(C)c4c(c3)OCCO4)ncn2)ccc1C(=O)O [Ex 292]
–	520 nM	568 nM	603 nM	O=C(O)c1ccc(-c2cc(NCCc3ccc4c(c3)OCC4)ncn2)cc1OC1CCC1 [Ex 295]
–	782 nM	592 nM	2120 nM	CCOc1cc(-c2cc(NCCc3ccc4scc(C)c4c3)ncn2)ccc1CC(=O)O [Ex 297]
–	274 nM	654 nM	610 nM	Cc1csc2ccc(CCNc3cc(-c4ccc(C(=O)O)c(OC5CCC5)c4)ncn3)cc12 [Ex 306]
–	564 nM	683 nM	937 nM	CSc1cc(-c2cc(NCCc3ccc4c(c3)OCCO4)ncn2)ccc1C(=O)O [Ex 310]
–	354 nM	559 nM	1180 nM	CSc1cc(-c2cc(NCCc3ccc4[nH]ccc4c3)ncn2)ccc1C(=O)O [Ex 319]
–	12200 nM	1510 nM	415 nM	CCOc1cc(-c2cc(NCCc3ccc4c(c3)OCCC4)ncn2)ccc1CC(=O)O [Ex 332, {4-[6-(2-Chroman-7-yl-ethylamino)-pyrimidin-4-yl]-2-ethoxy-phenyl}-acetic acid]
–	683 nM	30 nM	6 nM	CCOc1cc(-c2cc(NCCc3ccc4ccccc4c3)ncn2)sc1-c1noc(=O)[nH]1 [Example 345, 3-{3-Ethoxy-5-[6-(2-naphthalen-2-yl-ethylamino)-pyrimidin-4-yl]-thiophen-2-yl}-[1,2,4]oxadiazol-5(4H)-one]
–	282 nM	110 nM	57 nM	CCOc1cc(-c2cc(NCCc3c(F)cc4ncccc4c3F)ncn2)sc1-c1noc(=O)[nH]1 [Example 346, 3-(5-{6-[2-(5,7-Difluoro-quinolin-6-yl)-ethylamino]-pyrimidin-4-yl}-3-ethoxy-thiophen-2-yl)-[1,2,4]oxadiazol-5(4H)-one]
–	495 nM	172 nM	31 nM	CCOc1cc(-c2cc(NCCc3cc4cccnc4cc3F)ncn2)sc1C(=N)NO [Example 347, 3-Ethoxy-5-{6-[2-(7-fluoro-quinolin-6-yl)-ethylamino]-pyrimidin-4-yl}-N-hydroxy-thiophene-2-carboxamidine]
